Test results taken from patent US8901126B2, “Substituted imidazo[1,5-A]quinoxalin-4-ones are useful for preventing or treating storage dysfunction, voiding dysfunction and bladder/urethral diseases” (priority 2010, dated 2014).
Structures can show the parent of a compound that is named as a salt.

Legend:
[1] = biological target: T1, PDE9 (Homo sapiens, UniProt O76083); experiment: PDE9-inhibiting activity (SPA, 3H-cGMP degradation); format: biochemical; conditions: PDE9-inhibiting activity (IC50 values), cGMP 1 μM, 30° C.
T1 construct: made in house
Experimental: The PDE9 used in the present experiment was expressed/purified by the method as in, for example, Guipponi et al., and Fisher et., al. (Fisher, D. A., et al., J. Biol. Chem., 273: pp. 15559-15564 (1998), Guipponi, M., et al., Hum. Genet., 103: pp. 386-392 (1998)).
(2) Evaluation of PDE9-Inhibiting Activity
The PDE9-inhibiting activity was measured by the following method. That is, to a buffer solution containing tris(hydroxymethyl)aminomethane-hydrochloric acid (40 mM, pH 8.0), magnesium chloride (5 mM), and 2-mercaptoethanol (4 mM) were added cGMP (1 μM) and ^3H-cGMP (0.33 μCi/ml) to give a substrate buffer solution. A test substance solution and an enzyme solution which had been adjusted to an optimal concentration were added thereto to perform a reaction at 30° C. The enzyme reaction was stopped by the addition of Scintillation Proximity Assay (SPA) Beads (Perkin Elmer, USA) containing 5 mM 3-isobutyl-1-methylxanthine (IBMX). For the enzyme activity, the amount of 5′-GMP, which is a reaction degradation product bound to SPA beads, was measured with a TopCount microplate reader (Hewlett Packard, USA).
The inhibitory rate was calculated by taking the radioactivity of the control containing no test substance as (A), taking the radioactivity of the blank containing no enzyme as (B), and taking the radioactivity of the test substance as (C), and using the following equation. Inhibitory rate=100−{(C)−(B)/(A)−(B)}×100(%)

[2] = test system: urethra relaxation response; experiment: Simultaneous measurement model for rat bladder contraction/urethra relaxation responses; format: in vivo; conditions: female SD rat, urethane anesthesia, 1 mg/kg, intravenously or intraduodenally
Description: That is, a female Sprague-Dawley (SD) rat (Charles River Laboratories Japan, Inc.) was anesthetized with urethane, and the bladder was exposed by a midline incision in the lower abdomen. A double lumen cannula (a cannula having a dual structure by PE190 and PE50) from the bladder apex was inserted into the bladder, and the bladder apex and the cannula were fixed by sutures at a point where the tip reached the proximal urethra. While infusing physiological saline into the urethra through the outer cannula, the urethral inner pressure was measured by a pressure transducer through the inner cannula with a saline solution infused into the urethra through the outer cannula. On the other hand, a single cannula (PE50) was inserted into the bladder from the bladder apex and placed therein. The inner pressure of the bladder was measured through this cannula. After a postoperative stabilization period had passed, physiological saline was infused into the bladder through the cannula of the bladder apex to cause a bladder contraction reaction, and thus cause a urethra relaxation response accompanying the bladder contraction reflex. The test substance was administered intravenously or intraduodenally.

T1 sequence (O76083 whole entry): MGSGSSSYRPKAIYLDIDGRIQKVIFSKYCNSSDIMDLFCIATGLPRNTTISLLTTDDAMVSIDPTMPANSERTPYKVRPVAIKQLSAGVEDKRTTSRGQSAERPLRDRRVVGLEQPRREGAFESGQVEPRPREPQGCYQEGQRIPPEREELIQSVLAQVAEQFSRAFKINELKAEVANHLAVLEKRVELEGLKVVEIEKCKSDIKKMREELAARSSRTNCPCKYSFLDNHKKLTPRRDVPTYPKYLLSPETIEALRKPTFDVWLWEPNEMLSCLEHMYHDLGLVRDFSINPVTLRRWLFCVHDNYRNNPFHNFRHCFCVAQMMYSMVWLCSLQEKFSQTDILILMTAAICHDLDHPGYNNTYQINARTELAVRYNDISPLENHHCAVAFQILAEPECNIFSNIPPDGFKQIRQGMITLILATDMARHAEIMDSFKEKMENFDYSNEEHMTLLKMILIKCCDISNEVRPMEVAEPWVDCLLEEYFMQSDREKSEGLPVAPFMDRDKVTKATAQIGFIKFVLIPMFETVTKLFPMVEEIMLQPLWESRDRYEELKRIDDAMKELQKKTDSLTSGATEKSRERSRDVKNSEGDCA

IC50 [1] [nM] | melting point | SMILES | ratio with increased urethra relaxation time during voiding (increase relative to the solvent administration group (vs vehicle)) [2] [%]
14 | – | COCc1cc2c(cc1C(=O)N1CCc3cc(C)cnc31)[nH]c(=O)c1cnc(C3CCOC3)n12 (single isomer, unassigned) [Example 25(b)] | 131
26 | – | COc1cc2c(cn1)N(C(=O)c1cc3[nH]c(=O)c4cnc(C5CCOC5)n4c3cc1C)CC2 (single isomer, unassigned) [Example 27(b)] | 181
5.6 | – | Cc1cc2c(cc1C(=O)N1CCc3cc(Br)cnc31)[nH]c(=O)c1cnc(C3CCOC3)n12 (single isomer, unassigned) [Example 29(b)] | 149
5.8 | – | Cc1cc2c(cc1C(=O)N1CCc3cc(F)c(F)cc31)[nH]c(=O)c1cnc(C3CCOC3)n12.Cl (single isomer, unassigned) [Example 30(b)] | 147
2.8 | – | COCc1cc2c(cc1C(=O)N1CCc3cc(Br)cnc31)[nH]c(=O)c1cnc(C3CCOC3)n12 (single isomer, unassigned) [Example 43(b)] | 138
8.9 | – | COCc1cc2c(cc1C(=O)N1Cc3c(F)ccc(F)c3C1)[nH]c(=O)c1cnc(C3CCOC3)n12.Cl (single isomer, unassigned) [Example 45(b)] | 141
11 | – | COCc1cc2c(cc1C(=O)N1CCc3cc(OC)ncc31)[nH]c(=O)c1cnc(C3CCOC3)n12 (single isomer, unassigned; (+)) [Example 4(b), (+)-7-[(5-methoxy-2,3-dihydro-1H-pyrrolo[2,3-c]pyridin-1-yl)carbonyl]-8-(methoxymethyl)-1-(tetrahydrofuran-3-yl)imidazo[1,5-a]quinoxalin-4(5H)-one dihydrochloride] | 167
22 | 297 to 299 °C | COc1cc2c(cn1)N(C(=O)c1cc3[nH]c(=O)c4cnc(C5CCCOC5)n4c3cc1C)CC2 (centres unmarked) [Example 3, 7-[(5-methoxy-2,3-dihydro-1H-pyrrolo[2,3-c]pyridin-1-yl)carbonyl]-8-methyl-1-(tetrahydro-2H-pyran-3-yl)imidazo[1,5-a]quinoxalin-4(5H)-one] | –
2.1 | 324 to 326 °C | Cc1cc2c(cc1C(=O)N1c3ccc(Cl)cc3CC1C)[nH]c(=O)c1nnc(C3CCOCC3)n12.Cl (centres unmarked) [Example 7] | –
2.8 | 200 to 202 °C | COC1CC(c2nnc3c(=O)[nH]c4cc(C(=O)N5CCc6cc(Cl)ccc65)c(C)cc4n23)C1.Cl (centres unmarked) [Example 8] | –
4.5 | 177 to 180 °C | Cl.O=C(c1cc2[nH]c(=O)c3cnc(C4CCOCC4)n3c2cc1OCC1CCOC1)N1CCc2cc(F)ccc21 (centres unmarked) [Example 10] | –
14 | 331 to 333 °C | CCc1cnc2c(c1)CCN2C(=O)c1cc2[nH]c(=O)c3cnc(C4CCOCC4)n3c2cc1C [Example 13] | –
2.8 | 188 to 189 °C | COC1CC(c2nnc3c(=O)[nH]c4cc(C(=O)N5CCc6cc(Br)ccc65)c(C)cc4n23)C1.Cl (centres unmarked) [Example 15] | –
22 | 314 to 316 °C (dec.) | COc1cc2c(cn1)N(C(=O)c1cc3[nH]c(=O)c4cnc(C5CCOCC5)n4c3cc1Cl)CC2 [Example 21] | –
56 | 197 to 199 °C | Cc1cc2c(cc1C(=O)N1CCc3cc(F)ccc31)[nH]c(=O)c1cnc([C@@H]3CCC[C@@H]3O)n12 [Example 22] | –
4.9 | 316 to 319 °C (dec.) | COc1cc2c(cc1C(=O)N1CCc3cc(Br)cnc31)[nH]c(=O)c1cnc(C3CCOCC3)n12 [Example 23] | –
17 | 268 to 271 °C | Cc1cc2c(cc1C(=O)N1CCc3cc(Br)cnc31)[nH]c(=O)c1nnc(CC3CC3)n12 [Example 24] | –
84 | 241 to 243 °C | COc1cc2c(cn1)N(C(=O)c1cc3[nH]c(=O)c4cnc(C5CCOC5)n4c3cc1C)CC2 (centres unmarked) [Example 27] | –
1.4 | 221 to 224 °C | Cc1cc2c(cc1C(=O)N1CC(C)c3cc(Cl)ccc31)[nH]c(=O)c1cnc(C3CCOCC3)n12.Cl (centres unmarked) [Example 31] | 149
2.6 | 231 to 234 °C | Cc1cc2c(cc1C(=O)N1CC(C)c3cc(Cl)ccc31)[nH]c(=O)c1nnc(C3CCOCC3)n12.Cl (centres unmarked) [Example 32] | –
18 | 174 to 176 °C | COCc1cc2c(cc1C(=O)N1CCc3cc(Br)cnc31)[nH]c(=O)c1nnc(C3CCC3)n12 [Example 41] | –
13 | 154 to 156 °C | COCc1cc2c(cc1C(=O)N1Cc3cccc(F)c3C1)[nH]c(=O)c1cnc(C3CCOC3)n12 (centres unmarked) [Example 42] | –
6.1 | 168 to 170 °C | COCc1cc2c(cc1C(=O)N1CCc3cc(Br)cnc31)[nH]c(=O)c1nnc(CC3CC3)n12 [Example 44] | –
13 | 170 to 172 °C | COCc1cc2c(cc1C(=O)N1CCc3cc(Cl)ccc31)[nH]c(=O)c1nnc(C3CCC3)n12.Cl [Example 46] | –
2.1 | 300 to 305 °C (dec.) | Cc1cc2c(cc1C(=O)N1CCc3cc(Br)cnc31)[nH]c(=O)c1cnc(C3CCCOC3)n12 (centres unmarked) [Example 47] | –
0.8 | 270 to 275 °C (dec.) | O=C(c1cc2[nH]c(=O)c3cnc(C4CCOCC4)n3c2cc1Cl)N1CCc2cc(Br)cnc21 [Example 48] | –
